Converted amounts (≈) assume the structure as drawn.
Key:
[1] = test system: HeLa-MaTu-ADR; experiment: Proliferation assay, crystal violet; format: cell-based; conditions: Homo sapiens, 96 h, 4 days, read-out: Inhibition of HeLa-MaTu-ADR cell proliferation IC50
Description: Cultivated tumour cells (HeLa, human cervical tumour cells, ATCC CCL-2; NCI—H460, human non-small cell lung carcinoma cells, ATCC HTB-177; DU 145, hormone-independent human prostate carcinoma cells, ATCC HTB-81; HeLa-MaTu-ADR, multidrug-resistant human cervical carcinoma cells, EPO-GmbH Berlin; Caco-2, human colorectal carcinoma cells, ATCC HTB-37; B16F10, mouse melanoma cells, ATCC CRL-6475) were plated at a density of 3,500 cells/well (DU145), 3,000 cells/well (HeLa-MaTu-ADR), 1,500 cells/well (NCI—H460), 3,000 cells/well (HeLa), 2,000 cells/well (Caco-2), or 1,000 cells/well (B16F10) in a 96-well multititer plate in 150 μL of their respective growth medium supplemented 10% fetal calf serum. After 24 hours, the cells of one plate (zero-point plate) were stained with crystal violet (see below), the test substances were added in various concentrations (0 μM, as well as in the range of 0.0001-10 μM) employing HP Dispenser. The cells were incubated for 4 days in the presence of test substances. Cell proliferation was determined by staining the cells with crystal violet: the cells were fixed by adding 20 μl/measuring point of an 11% glutaric aldehyde solution for 15 minutes at room temperature. After three washing cycles of the fixed cells with water, the plates were dried at room temperature. The cells were stained by adding 100 μl/measuring point of a 0.1% crystal violet solution DU 145, Caco-2, HeLa (pH 4.5) B16F10, NCI—H460, HeLa-MaTu-ADR. After three washing cycles of the stained cells with water, the plates were dried at room temperature. The dye was dissolved by adding 100 μl per measuring point of a 10% acetic acid solution. The extinction was determined by photometry at a wavelength of 595/550/620 nm depending on the intensity of coloration, usually at 595 nm. The change of cell number, in percent, was calculated by normalization of the measured values to the extinction values of the zero-point plate (=0%) and the extinction of the untreated (0 μM) cells (=100%). The IC50 values (inhibitory concentration at 50% of maximal effect) were determined by means of a 4 parameter fit.

[2] = Thermodynamic solubility in water from powder (Method 4b); format: physicochemical; conditions: phosphate buffer, aqueous buffer, thermodynamic from solid; pH 6.5, Method 4b
Description: 4b) Thermodynamic Solubility in Water from Powder
The thermodynamic solubility of compounds in water was determined by an equilibrium shake flask method (see for example: E. H. Kerns, L. Di: Drug-like Properties: Concepts, Structure Design and Methods, 276-286, Burlington, Mass., Academic Press, 2008). A saturated solution of the drug was prepared and the solution was mixed for 24 h to ensure that equilibrium was reached. The solution was centrifuged to remove the insoluble fraction and the concentration of the compound in solution was determined using a standard calibration curve. To prepare the sample, 2 mg solid compound was weighed in a 4 mL glass vial. 1 mL phosphate buffer pH 6.5 was added. The suspension was stirred for 24 hrs at room temperature. The solution was centrifuged afterwards. To prepare the sample for the standard calibration, 2 mg solid sample was dissolved in 30 mL acetonitrile. After sonification the solution was diluted with water to 50 mL. Sample and standards were quantified by HPLC with UV-detection. For each sample two injection volumes (5 and 50 μl) in triplicates were made. Three injection volumes (5 μl, 10 μl and 20 μl) were made for the standard. […]
The areas of sample- and standard injections as well as the calculation of the solubility value (in mg/l) were determined by using HPLC software (Waters Empower 2 FR).

Row | IC50 [1] | solubility thermodynamic at 24 h [2] | Structure (SMILES)
1 | 7.8 nM | – | CS(=N)(=N)Cc1cc2nc(c1)OCCCOc1cc(F)ccc1-c1cc(ncc1F)N2 [Example 1, 15,19-difluoro-8-[(S-methylsulfonodiimidoyl)methyl]-3,4-dihydro-2H,11H-10,6-(azeno)-12,16-(metheno)-1,5,11,13-benzodioxadiazacyclooctadecine]
2 | – | 0.058 mg/mL (≈ 126 µM) | CS(=N)(=N)Cc1cc2cc(c1)OCCCCOc1cc(F)ccc1-c1nc(ncc1F)N2 [Example 5, 16,20-difluoro-9-[(S-methylsulfonodiimidoyl)methyl]-2,3,4,5-tetrahydro-12H-13,17-(azeno)-11,7-(metheno)-1,6,12,14-benzodioxadiazacyclononadecine]
